Laboratory results from patent US9271978B2 (Zenith Epigenetics Corp., priority 2012, dated 2016).

Columns and labels:
[1] = system: c-myc; assay: Inhibition of c-myc expression in MV4-11 cells (mRNA, real-time PCR); type: cell-based; parameters: key: Active: Compounds with an IC50 value less than 30 μM were deemed to be active.; Not Active: Compounds with an IC50 value less than 30 μM were deemed to be active; conditions: Human AML MV4-11 cells, 3 h incubation
Summary of the method: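 MV4-11 cells (2.5×10^4) treated with compound or 0.1% DMSO for 3 h at 37 °C. c-myc mRNA measured by RT real-time PCR duplexed with cyclophilin. IC50 from dose–response curve.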

[2] = system: hIL-6 mRNA; assay: Inhibition of hIL-6 mRNA transcription in U937 cells; type: cell-based, human; parameters: key: Active: Compounds with an IC50 value less than 30 μM were deemed to be active.; Not Active: Compounds with an IC50 value less than 30 μM were deemed to be active; conditions: LPS stimulation, active = IC50 <30 μM
Summary of the method: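 U937 cells differentiated 3 days with 60 ng/mL PMA, pretreated 1 h with compound, then stimulated with 1 ug/mL E. coli LPS for 3 h at 37° C. hIL-6 mRNA quantified by one-step qRT-PCR, Ct normalized to internal control, expressed as fold induction relative to control.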

[3] = system: ApoA-I mRNA; assay: Up-regulation of hApoA-1 mRNA transcription in Huh7 cells; type: cell-based, human; parameters: key: Active: Compounds with an EC170 value less than 30 μM were deemed to be active; conditions: 48 h treatment, ApoA-I mRNA by real-time PCR, Active = EC170 less than 30 μM
Summary of the method: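 Huh7 cells treated with compound for 48 h. ApoA-I mRNA was then quantified in captured mRNA by one-step real-time RT-PCR. Fold induction calculated from Ct values relative to the matching DMSO control; EC170 is the concentration for 170% of control expression.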

[4] = system: human AML MV-4-11 (CRL-9591) cells; assay: Inhibition of cell proliferation in MV4-11 cells; type: cell-based; parameters: key: Active: Compounds with an IC50 value less than 30 μM were deemed to be active.; Not Active: Compounds with an IC50 value less than 30 μM were deemed to be active; conditions: human AML MV-4-11 cells, 72 h; active = IC50 <30 μM
Summary of the method: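 Exponentially growing MV-4-11 cells (5×10^4/well) were treated immediately with two-fold dilutions of compound from 30 μM to 0.2 μM, in triplicate, for 72 h at 37° C, 5% CO2. Viability was measured by MTS absorbance at 490 nm after 3–4 h. Proliferation relative to DMSO after blank correction gave IC50.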

Cc1noc(C)c1-c1ccc(=O)n(Cc2ccccc2)c1 [Example 56, 1-Benzyl-5-(3,5-dimethylisoxazol-4-yl)pyridin-2(1H)-one]
Active: c-myc activity (IC50 <30 μM) [1] | IL-6 activity (IC50 <30 μM) [2] | ApoA-1 activity (EC170 <30 μM) [3] | Cell Proliferation activity (IC50 <30 μM) [4]

Cc1noc(C)c1-c1cc(N)c(=O)n(Cc2ccccc2)c1 [Example 73, 3-Amino-1-benzyl-5-(3,5-dimethylisoxazol-4-yl)pyridin-2(1H)-one]
Active: c-myc activity (IC50 <30 μM) [1] | IL-6 activity (IC50 <30 μM) [2] | ApoA-1 activity (EC170 <30 μM) [3] | Cell Proliferation activity (IC50 <30 μM) [4]

Cc1noc(C)c1-c1ccc(=O)n(Cc2ccc(Cl)cc2)c1 [Example 128, 1-(4-Chlorobenzyl)-5-(3,5-dimethylisoxazol-4-yl)pyridin-2(1H)-one]
Active: c-myc activity (IC50 <30 μM) [1] | IL-6 activity (IC50 <30 μM) [2] | ApoA-1 activity (EC170 <30 μM) [3] | Cell Proliferation activity (IC50 <30 μM) [4]

Cc1noc(C)c1-c1ccc(=O)n([C@H](C)c2ccccc2)c1 [Example 134, (R)-5-(3,5-Dimethylisoxazol-4-yl)-1-(1-phenylethyl)pyridin-2(1H)-one]
Active: c-myc activity (IC50 <30 μM) [1] | IL-6 activity (IC50 <30 μM) [2] | ApoA-1 activity (EC170 <30 μM) [3] | Cell Proliferation activity (IC50 <30 μM) [4]

Cc1noc(C)c1-c1cc(N)c(=O)n(Cc2ccc(F)cc2)c1 [Example 180, 3-amino-5-(3,5-dimethylisoxazol-4-yl)-1-(4-fluorobenzyl)pyridin-2(1H)-one]
Active: c-myc activity (IC50 <30 μM) [1] | IL-6 activity (IC50 <30 μM) [2] | ApoA-1 activity (EC170 <30 μM) [3] | Cell Proliferation activity (IC50 <30 μM) [4]

Cc1noc(C)c1-c1cc(N)c(=O)n(Cc2ccsc2)c1 [Example 219, 3-amino-5-(3,5-dimethylisoxazol-4-yl)-1-(thiophen-3-ylmethyl)pyridin-2(1H)-one]
Active: c-myc activity (IC50 <30 μM) [1] | IL-6 activity (IC50 <30 μM) [2] | ApoA-1 activity (EC170 <30 μM) [3] | Cell Proliferation activity (IC50 <30 μM) [4]

Cc1noc(C)c1-c1cc(N)c(=O)n(Cc2ccc(Br)cc2)c1 [Example 241, 3-Amino-1-(4-bromobenzyl)-5-(3,5-dimethylisoxazol-4-yl)pyridin-2(1H)-one]
Active: c-myc activity (IC50 <30 μM) [1] | IL-6 activity (IC50 <30 μM) [2] | ApoA-1 activity (EC170 <30 μM) [3] | Cell Proliferation activity (IC50 <30 μM) [4]
